In brackets after ≈: the same amount, converted by molar mass. Several values for one entry are separate records, joined by “and”; a condition that tells them apart may be missing. Equal entries are not always repeated. Marks after values point to notes of the source that are not given here.
Columns and labels:
MCF-7 (breast cancer) = assay: cells; details: for LC50: 50% cell destroying lethal concentration
Text: (§1) The cancer cell growth inhibition test was primarily used to detect the effect of a candidate drug on cancer cell proliferation. The working principle involved therein is the abilityof viable cells to shift alamarBlue (Biosource, USA) from its originally non-fluorescent oxidized state to a reduced form (fluorescent, red) having fluorescence via metabolic reaction. According to the fluorescent data result generated by the alamarBlue reagent thus obtained, the proliferation of the viable cells and cell activity can be quantified for detection.
(§2) In this experiment, the assay concentrations of the candidate drug were set to be 0.01, 0.1, 1, 10, and 100 µg/ml, and the following cell lines were used: 6 human cancer cells MCF-7 (breast cancer), HT-29 (colon cancer), HL-60 (leukemia), HepG2 (liver cancer), A549 (lung cancer), and U937 (lymphoma cancer), and a normal human umbilicalvenalepithelialcell (HUVEC).

HT-29 (colon cancer) = assay: cells; details: for LC50: 50% cell destroying lethal concentration
Text: as §1, §2

HepG2 (liver cancer) = assay: cells; details: for LC50: 50% cell destroying lethal concentration
Text: as §1, §2

A549 (lung cancer) = assay: cells; details: for LC50: 50% cell destroying lethal concentration
Text: as §1, §2

U937 (lymphoma cancer) = assay: cells; details: for LC50: 50% cell destroying lethal concentration
Text: as §1, §2

HL-60 (leukemia) = assay: cells; details: for LC50: 50% cell destroying lethal concentration
Text: as §1, §2

HUVEC = assay: in vitro; details: HUVEC (normal human cell); for LC50: 50% cell destroying lethal concentration
Text: as §1, §2

[1] = system: Human breast cancer cells MCF-7 (ATCC HTB-22); assay: In vivo tumor growth inhibition, MCF-7 xenograft in SCID mice; details: 2 mg/kg x 5, intraperitoneal, 4-day interval
Method: Mixture formulation TSB-9 was further subjected to an animal test, in which female mice (6-8 weeks old, weighing 20-22 grams) originally from C.B-17/Icr background and having Severe Combined Immune Deficiency (SCID) were used.
Human breast cancer cells MCF-7 (ATCC HTB-22) (1x10^7 cells/0.2 ml) were implanted subcutaneously into the dorsal side of the mice, and 50 µg/mouse of estradiol benzoate (Sigma, USA) was injected subcutaneously into the mice weekly as supplement for a total of 4 weeks. When the tumor growth reached ≥5 mm in diameter (that very day was denoted as day 1), tumor-bearing […] mice were randomly divided into 4 groups (6 mice in each group).
Mixture formulation TSB-9 was dissolved in 10%DMSO, and was administered orally to the mice every day at two dosages 40 mg/kg and 80 mg/kg, respectively, for a total of 21 consecutive days. […] This treatment group served as a positive control.
Measurements were taken once every 4 days during the experiment periods, and were recorded.

[2] = Homo sapiens, A549, A549, 50% cell growth inhibition concentration
[3] = Homo sapiens, HL-60, HL-60, 50% cell growth inhibition concentration
[4] = Homo sapiens, HUVEC, 50% cell growth inhibition concentration
[5] = Homo sapiens, MCF7, MCF-7, 50% cell growth inhibition concentration
[6] = Homo sapiens, HT-29, HT-29, 50% cell growth inhibition concentration
[7] = Homo sapiens, HepG2, HepG2, 50% cell growth inhibition concentration

With `CC(C)=CCc1c2c(c(O)c3c1OC14C(=CC5CC1C(C)(C)OC4(CC=C(C)C(=O)O)C5=O)C3=O)C=CC(C)(C)O2` (stereo not drawn) [TSB-2, isomorellic acid] the LC50 (MCF-7 (breast cancer); MCF-7) was 24 µg/mL (≈ 42.8 µM), the IC50 (MCF-7 (breast cancer); MCF-7, 50% cell growth inhibition concentration) was 9.0 µg/mL and the LC50 (HT-29 (colon cancer); HT-29) was 12 µg/mL (≈ 21.4 µM). For the same molecule, the IC50 (HT-29 (colon cancer); HT-29, 50% cell growth inhibition concentration) was 6.9 µg/mL, the LC50 (HepG2 (liver cancer); HepG2) was 33 µg/mL (≈ 58.9 µM) and the IC50 (HepG2 (liver cancer); HepG2, 50% cell growth inhibition concentration) was 6.4 µg/mL. It also gave an LC50 (A549 (lung cancer); A549) of 4.6 µg/mL (≈ 8.2 µM), an IC50 (A549 (lung cancer); [2]) of 1.3 µg/mL and an IC50 (U937 (lymphoma cancer); Homo sapiens, U-937) of 1.6 µg/mL. It also gave an LC50 (U937 (lymphoma cancer); U937) of 6.1 µg/mL (≈ 10.9 µM), an LC50 (HL-60 (leukemia); HL-60) of 43 µg/mL (≈ 76.7 µM) and an IC50 (HL-60 (leukemia); [3]) of 2.3 µg/mL. It also gave an LC50 (HUVEC) of 22 µg/mL (≈ 39.2 µM) and an IC50 (HUVEC; [4]) of 1.7 µg/mL.
`CO[C@@]12[C@H](COC(N)=O)C3=C(C(=O)C(C)=C(N)C3=O)N1C[C@@H]1N[C@@H]12` [mitomycin, reference compound] was tested, and the “Tumor growth (%T/C)” value ([1]; Day 1) was 98%, the “Tumor growth (%T/C)” value ([1]; Day 5) was 31* % and the “Tumor growth (%T/C)” value ([1]; Day 9) was 1* %. The “Tumor growth (%T/C)” value ([1]; Day 13) was -6* %, the “Tumor growth (%T/C)” value ([1]; Day 17) was -23* % and the “Tumor growth (%T/C)” value ([1]; Day 21) was -36* %. For the same molecule, the “Tumor growth (%T/C)” value ([1]; Day 25) was -56* %, the “Tumor growth (%T/C)” value ([1]; Day 29) was -70* % and the IC50 (MCF-7 (breast cancer); MCF-7, positive control) was 69 nM and 34 nM. For the same molecule, the IC50 (HT-29 (colon cancer); HT-29, positive control) was 120 nM and 89 nM, the IC50 (HT-29 (colon cancer); Homo sapiens, HT-29, HT-29, positive control) was 90 nM and the IC50 (HepG2 (liver cancer); HepG2, positive control) was 26 nM. The IC50 (HepG2 (liver cancer); HepG2, positive control, listed as Mitomycin) was 62 nM and 36 nM, the IC50 (A549 (lung cancer); A549, positive control) was 62 nM and 61 nM and the IC50 (A549 (lung cancer); Homo sapiens, A549, A549, positive control) was 68 nM. For the same molecule, the IC50 (U937 (lymphoma cancer); Homo sapiens, U-937, U937, positive control) was 69 nM, the IC50 (U937 (lymphoma cancer); U937, positive control) was 35 nM and 56 nM and the IC50 (HL-60 (leukemia); HL-60, positive control) was 47 nM and 27 nM. The IC50 (HL-60 (leukemia); Homo sapiens, HL-60, HL-60, positive control) was 39 nM, the IC50 (HUVEC; positive control) was 240 nM and the IC50 (HUVEC; positive control, listed as Mitomycin) was 170 nM.
`CC(C)=CCc1c2c(c(O)c3c1OC14C(=CC5CC1C(C)(C)OC4(CC=C(C)C)C5=O)C3=O)C=CC(C)(C)O2` (stereo not drawn) [TSB-8, desoxymorellin] was tested, and the IC50 (MCF-7 (breast cancer); [5]) was 5.3 µg/mL, the LC50 (MCF-7 (breast cancer); MCF-7) was 83 µg/mL (≈ 156 µM) and the LC50 (HT-29 (colon cancer); HT-29) was 69 µg/mL (≈ 130 µM). It also gave an IC50 (HT-29 (colon cancer); [6]) of 6.7 µg/mL, an LC50 (HepG2 (liver cancer); HepG2) of 31 µg/mL (≈ 58.4 µM) and an IC50 (HepG2 (liver cancer); [7]) of 3.9 µg/mL. The LC50 (A549 (lung cancer); A549) was 56 µg/mL (≈ 106 µM), the IC50 (A549 (lung cancer); [2]) was 4.8 µg/mL and the IC50 (U937 (lymphoma cancer); Homo sapiens, U-937) was 6.2 µg/mL. For the same molecule, the LC50 (U937 (lymphoma cancer); U937) was > 100 µg/mL, the LC50 (HL-60 (leukemia); HL-60) was > 100 µg/mL and the IC50 (HL-60 (leukemia); [3]) was 6.5 µg/mL. For the same molecule, the LC50 (HUVEC) was 40 µg/mL (≈ 75.4 µM) and the IC50 (HUVEC; [4]) was 2.8 µg/mL.
`CC(C)=CCCC1(C)C=Cc2c(O)c3c(c(CC=C(C)C)c2O1)OC12C(=CC4CC1C(C)(C)OC2(CC=C(C)C(=O)O)C4=O)C3=O` (stereo not drawn) [TSB-3, isogambogic acid] was tested, and the IC50 (MCF-7 (breast cancer); [5]) was 1.6 µg/mL, the LC50 (MCF-7 (breast cancer); MCF-7) was 4.3 µg/mL (≈ 6.84 µM) and the LC50 (HT-29 (colon cancer); HT-29) was 8.8 µg/mL (≈ 14 µM). It also gave an IC50 (HT-29 (colon cancer); [6]) of 6.4 µg/mL, an LC50 (HepG2 (liver cancer); HepG2) of 1.9 µg/mL (≈ 3.02 µM) and an IC50 (HepG2 (liver cancer); [7]) of 1.2 µg/mL. The LC50 (A549 (lung cancer); A549) was 4.8 µg/mL (≈ 7.63 µM), the IC50 (A549 (lung cancer); [2]) was 0.88 µg/mL and the IC50 (U937 (lymphoma cancer); Homo sapiens, U-937) was 0.82 µg/mL. For the same molecule, the LC50 (U937 (lymphoma cancer); U937) was 3.1 µg/mL (≈ 4.93 µM), the LC50 (HL-60 (leukemia); HL-60) was 4.6 µg/mL (≈ 7.32 µM) and the IC50 (HL-60 (leukemia); [3]) was 0.97 µg/mL. For the same molecule, the LC50 (HUVEC) was 5.2 µg/mL (≈ 8.27 µM) and the IC50 (HUVEC; [4]) was 1.1 µg/mL.

Source: patent EP1619195A2, “Compounds isolated from gamboge resin having activity in inhibiting the growth of tumor/cancer cells and pharmaceutical compositions comprising the same” (priority 2004, dated 2006)
